Data taken from patent publication US9487561B2, “Biologically active complex and its preparation” (HAMLET PHARMA AB, priority 2010, dated 2016).
“Also recorded” adds a separate entry of the source.

Tests used:
[1] = tested on: kidney carcinoma (A498) cells; assay: cell death assay with p38 inhibitors; assay type: cell-based, human; conditions: SB202190 20 μM or BIRB796 10 μM; HAMLET 3 h
Protocol: FIG. 4. p38 inhibition rescues carcinoma and lymphoma cells from death and morphological change in response to HAMLET. (A, B) p38 inhibition (SB202190, 20 μM) rescued carcinoma (A549 and A498) and T-cell lymphoma (Jurkat) cells from death in response to HAMLET (7-49 μM, 3 h). Viability was quantified by Trypan blue exclusion (A) or as ATP levels (B). Data are means+SEMs for 3 independent experiments. (C) Real-time images of cell morphology after HAMLET exposure, showing that p38 inhibition prevents morphological changes in carcinoma cells (nuclear condensation, rounding up and blebbing). (D-E) A549 lung carcinoma cells were transfected using siRNA against p38α/MAPK14 and/or p38β/MAPK11 or non-targeting siRNA. Relative MAPK11 and MAPK14 mRNA levels are shown (MAPK/GAPDH, in % of non-transfected cells) as means+SEMs for 4 independent experiments. […] (F) The cytotoxic effect of HAMLET was quantified 48 hours after transfection as reduction in ATP levels. […]
FIG. 12. […] Viability was quantified by ATP levels.
Cells were detached from cell culture flasks with versen (0.2 g EDTA in 200 ml H2O and 800 ml PBS), washed with PBS and resuspended in serum-free RPMI-1640. […] Cell death was quantified by trypan blue exclusion (Chroma Gesellschaft Schmid & Co) or by measuring ATP levels (ATPlite Kit, PerkinElmer, Infinite 200, Tecan). […]

[2] = tested on: p38, HSP27, ERK1/2 in kidney and lung carcinoma cells; assay: MAPK phosphorylation (phospho-MAPK antibody arrays, Western blot); assay type: cell-based, human
Excerpt: Equal volumes of lysates were separated by SDS-PAGE on 4-12% Bis-Tris gels (Invitrogen) and blotted onto PVDF membranes. For other Western blots, 200,000 cells were allowed to adhere overnight in a 6-well plate. After HAMLET treatment the cells were washed with PBS and lysed in M-PER lysis buffer (Pierce) containing Complete protease inhibitor cocktail and PhosSTOP phosphatase inhibitor cocktail (both from Roche). The detached cells were collected by centrifugation. The lysates were cleared by centrifugation and protein concentrations were measured using the DC Protein Assay (Bio-Rad Laboratories, Hercules, Calif.). Equal amounts of protein were separated by SDS-PAGE on 4-12% Bis-Tris gels (Invitrogen) and blotted onto PVDF membranes (GE Healthcare). Membranes were saturated with BSA (GAPDH) or nonfat dry milk (phospho-p38, p38, phospho-ERK1/2, ERK1/2) and incubated with anti-p38, anti-phospho-p38, anti-ERK1/2, anti-phospho-(Thr202/Tyr204)-p44/42 (all 1:500-1000, Cell Signaling Technology), anti-ATF6 (1:1000, IMG-273, Imgenex), anti-phospho-eIF2α (Ser51), (1:500, Cell Signaling Technology) or anti-GAPDH (1:3000-5000, Novus Biologicals) antibodies followed by horseradish peroxidase-conjugated anti-rabbit (1:1000, DakoCytomation, Glostrup, Denmark) or anti-mouse (1:40000-50000, Novus Biologicals) antibodies for staining. Bound antibodies were detected with ECL Plus Western Blotting Reagent (GE Healthcare, Little Chalfont, UK) and GelDoc equipment (Bio-Rad Laboratories, Hercules, Calif.). If required, membranes were stripped with Restore Western Blot Stripping Buffer (Pierce, Rockford, Ill.), blocked and reprobed with new antibodies. MAP kinase phosphorylation was analyzed on a Human Phospho-MAPK array (Proteome Profiler Array, R&D Systems) as per the manufacturer's instruction. Band and spot intensities were quantified using ImageJ (Abramoff et al., July 2004, Biophotonics International). Cytokine quantification (IL6, IL8, TNFα) was performed on an […] 1000 immunoassay system (Siemens Diagnostics).
P38 MAPKs are activated by dual phosphorylation on conserved threonine and tyrosine residues by MKK3/6 and when phosphorylated, a wide variety of effector proteins, including MAPKAPK2 kinases, HSP27 chaperones and ATF2 and CHOP transcription factors become active (Cuenda et al., 2007, Biochimica et Biophysica Acta 1773: 1358-1375).

[3] = tested on: A549 lung carcinoma cells; assay: cell death assay (trypan blue exclusion, ATP levels); assay type: cell-based, human; conditions: for effect of p38 inhibitor on death in response to HAMLET: SB202190 20 μM or BIRB796 10 μM, HAMLET 3 h
Protocol: (§1) Cells were detached from cell culture flasks with versen (0.2 g EDTA in 200 ml H2O and 800 ml PBS), washed with PBS and resuspended in serum-free RPMI-1640. HAMLET dissolved in PBS was incubated with cells (0.5×10^6/ml for A549, A498 and HeLa cells; 1×10^6/ml for Jurkat) at 37° C. FCS was added after 1 hour. Cell death was quantified by trypan blue exclusion (Chroma Gesellschaft Schmid & Co) or by measuring ATP levels (ATPlite Kit, PerkinElmer, Infinite 200, Tecan). Light images were captured using the HOLOMONITOR™ M2 digital holographic microscope (Phase Holographic Imaging AB, Lund, Sweden).
(§2) For studies with inhibitors, cells were pretreated for 30 minutes. Inhibitors used were Gadolinium chloride (GdCl3, 100 μM), Barium chloride (BaCl2, 1 mM), Ruthenium red (30 μM), tetrandrine (10 μM) and amiloride (1 mM), all from Sigma Aldrich. For p38 inhibition, SB202190 (20 μM, Sigma Aldrich) or BIRB796 (10 μM, Axon Medchem) dissolved in DMSO was used. The wells were washed twice with PBS and new medium with inhibitor was added. For RNA interference, FlexiTube siRNA Premixes against MAPK11 (SI00606053), MAPK14 (SI00300769) and All Star Negative Control siRNA (SI03650318) from Qiagen was used. A549 forward was transfected using 25 nM final siRNA concentration in 24-well plate. After 48 hours, knockdown was examined by Western blot (anti-p38, 1:1000, Cell Signaling) and RT-PCR (MAPK14, QT00079345, QIAGEN).
(§3) To examine if functional ion channels are important for the tumoricidal activity of HAMLET, A549 lung carcinoma cells in suspension were pretreated with the channel inhibitors for 30 minutes and exposed to increasing concentrations of HAMLET for three hours.
A549 cells were seeded to a density of 0.8-1.0×10^6 cells/well in RPMI without FCS. Different volumes of HAMLET/oleate and oleic acid solutions were added. The cells were incubated for 1 hour at 37° C. 5% CO2 for 1 hour before 50 μl of FCS (5% final concentration) were added to the wells. The cells were then further incubated for additional 2 hours before the viability were determined by trypan blue exclusion and ATP measurements.

[4] = tested on: lymphoma cells (Jurkat cells); assay: cell death assay with inhibitors; assay type: cell-based; conditions: SB202190 20 μM; HAMLET 7-49 μM, 3 h
Protocol: GAPDH was used as a loading control.
as §1, §2, §3

[5] = tested on: Human renal tubular epithelial cells (HRTEC); assay: Ca^2+ and K^+ levels in healthy, differentiated cells in primary culture; assay type: cell-based
Protocol: Human renal tubular epithelial cells (HRTEC) were preincubated with Fluo-4 as described, exposed to HAMLET (35 μM) and examined by real time confocal microscopy.
(§4) To further characterize ion channel activation by HAMLET, carcinoma cells were pretreated with defined channel blockers. Amiloride is a sodium channel inhibitor with effects on mechanosensitive channels, barium chloride (BaCl2) is a general K^+ channel inhibitor, gadolinium chloride (GdCl3) inhibits mechanosensitive channels, Ruthenium red is a general Ca^2+ inhibitor and tetrandrine inhibits large conductance, Ca^2+ activated K^+ channels. The carcinoma cells were preincubated with Fluo-4 as described above, pretreated with each of the channel inhibitors for 30 minutes, exposed to HAMLET (35 μM) and examined by real time confocal imaging. Furthermore, cells treated with EGTA were compared to cells with intact extracellular Ca^2+ levels, to distinguish the early peak from the subsequent influx of Ca^2+ (FIG. 1B, Table in FIG. 8).

[6] = tested on: lung carcinoma cells (A549); assay: intracellular Ca^2+, Fluo-4, real time confocal microscopy; assay type: cell-based, human
Protocol: To examine if HAMLET modulates ion channel activity in tumor cells, we first quantified changes in intracellular Ca^2+ and K^+. Lung carcinoma cells were first preloaded with the Fluo-4 Ca^2+ fluorophore Fluo-, exposed to HAMLET (35 μM) and examined by real time confocal microscopy for changes in fluorescence intensity (FIG. 1A). The Ca^2+ ionophore A23187, which acts as a Ca^2+ shuttle across cell membranes, was used as a positive control (Abbott et al., 1979, Antimicrobial Agents and Chemotherapy 16, 808-812).
(§5) To distinguish Ca^2+ mobilization from intracellular stores from the influx of extracellular Ca^2+, EGTA was then added to the cell medium. […] K^+ fluxes across tumor cell membranes were subsequently quantified under the same experimental conditions, using the fluorophore FLUXOR™, which fluoresces after thallium has entered cells through K^+ channels.
as §4

[7] = tested on: lung carcinoma, kidney carcinoma and lymphoma cells; assay: HAMLET-induced change in cell morphology (light microscopy, real-time imaging); assay type: cell-based
Protocol: as §1
For live cell imaging, cells were pre-treated with SB202190 for 30 minutes, nuclei were stained with Hoechst 33342 (Invitrogen) and Alexa-Fluor 568-labeled HAMLET (10% labeled HAMLET, Molecular Probes) was added in serum-free medium. FCS was added after 1 hour. Fluorescence was detected with pinhole settings corresponding to 1 airy unit. The cells were kept at 37° C., 5% CO2 and examined unfixed by LSM510 DUO confocal microscopy (Carl Zeiss).
To examine if the HAMLET-induced change in carcinoma cell morphology was modified by the channel inhibitors, lung carcinoma, kidney carcinoma and lymphoma cells were exposed to HAMLET in the presence or absence of ion channel inhibitors and examined by light microscopy (FIG. 2C).
To determine if p38 signaling was involved in cell death, we inhibited p38α and p38β in lung and kidney carcinoma and Jurkat lymphoma cells with two small-molecule p38 inhibitors: SB202190, a highly specific pyridinyl-imidazole inhibitor; and BIRB796, a diaryl urea compound, which bears little structural similarity to SB202190 (Fabian et al., 2005, Nature Biotechnology 23: 329-336), ([…] and FIG. 12B). […] The effect of p38 inhibition on cell death was also observed by real-time confocal imaging of lung carcinoma cells exposed to fluorescently labeled HAMLET.

[8] = tested on: potassium channels in A549, lung carcinoma cell lines; assay: FLUXOR potassium (K^+) channel assay, Thallium (Tl^+) indicator; assay type: cell-based, human; conditions: carcinoma cells, 30 minutes pretreatment, HAMLET 35 μM
Protocol: The FLUXOR™ potassium (K^+) channel assay was performed on the TECAN infinite F200 (Tecan Group, Switzerland), according to the manufacturer's instructions (Invitrogen). Briefly, this involved FLUXOR™ loading buffer (Hank's Balanced Saline Solution, (HBSS) buffered with 20 mM HEPES and pH adjusted to 7.4 with NaOH. POWERLOAD™ concentrate and water-soluble Probenecid were used respectively to enhance the dye solubility and retention, respectively. Media were removed from the cell plates manually, and 80 μL of loading buffer containing the FLUXOR™ dye mix was applied to each well. Once inside the cell, the nonfluorescent AM ester form of the FLUXOR™ dye is cleaved by endogenous esterases into a thallium-sensitive indicator. The dye was loaded for 60 minutes at room temperature and then removed with the supernatant. After washing with dye-free PBS buffer, a final volume of 80 μL assay buffer containing water-soluble probenecid was added. Cells received one of the following channel inhibitors: 3.3 μL per well of 30 mM amiloride, 3.0 μL of 32 mM BaCl2, 1.8 μL of 5.4 mM gadolinium, 3 μL 3.2 mM tetrandrine and 2.3 μL of 2.6 mM ruthenium red, and were then incubated at room temperature (23-25° C.) for 30 minutes to allow equilibration of the test compounds. Prior to injection, stimulation buffer was prepared from the chloride-free buffer and thallium reagents provided in the kit as well as HAMLET, to achieve a final added concentrations of 2 mM free Tl+ and 35 μM HAMLET after 1:5 dilution upon injection of the stimulus buffer onto cells that had been loaded with FLUXOR™ dye.
as §5
Potassium channel activity was therefore measured in A549, lung carcinoma cell lines using an indicator, which emits fluorescence signal upon entering the cells via opened potassium channels, Thallium (Tl^+) indicator (FIG. 18).

## Oc1ccc(-c2nc(-c3ccncc3)c(-c3ccc(F)cc3)[nH]2)cc1 [SB202190]
[1]
  effect of p38 inhibitor on death in response to HAMLET: rescued
[2]
  effect of p38 inhibitor on p38 and HSP27 phosphorylation upon HAMLET treatment: marked decrease in p38 and HSP27 phosphorylation
[3]
  effect of p38 inhibitor on death in response to HAMLET: rescued; also recorded: clearly attenuated
[4]
  effect of p38 inhibitor on death in response to HAMLET: rescued

## CNc1ccc2oc(C[C@H]3O[C@@]4(CC[C@H]3C)O[C@H]([C@H](C)C(=O)c3ccc[nH]3)[C@H](C)C[C@H]4C)nc2c1C(=O)O [ionophore, reference compound]
[5]; HAMLET 35 μM
  Ca^2+ response in HRTECs: rapid and sustained increase in Ca^2+
[6]
  cells involved in Ca^2+ response: all cells
[6]; HAMLET 35 μM
  intracellular Ca^2+ response: more drastic and sustained increase in intracellular Ca^2+ levels than HAMLET

## Cc1ccc(-n2nc(C(C)(C)C)cc2NC(=O)Nc2ccc(OCCN3CCOCC3)c3ccccc23)cc1 [BIRB796]
[1]
  effect of p38 inhibitor on death in response to HAMLET: rescued
[3]
  effect of p38 inhibitor on death in response to HAMLET: rescued
[7]; BIRB796 10 μM, HAMLET 35 μM, 3 h
  effect of p38 inhibitor on morphological changes associated with HAMLET induced cell death: diminishes the morphological changes

## [Cl][Gd]([Cl])[Cl] [GdCl3, Gadolinium chloride, reference compound]
[8]
  effect of channel blocker on K^+ flux in response to HAMLET: strongly inhibited
[5]
  effect of channel blocker on response to HAMLET in healthy cells: no effect
[3]; 30 minutes pretreatment, HAMLET three hours
  effect of channel inhibitor on HAMLET-induced cell death: no effect on viability
[7]; light microscopy
  effect of ion channel inhibitor on HAMLET-induced change in cell morphology: did not prevent the morphological changes
[6]; 30 minutes pretreatment, HAMLET 35 μM
  effect of channel blocker on first, EGTA insensitive Ca^2+ peak in response to HAMLET: inhibited
